Patent publication US20150258108A1 (priority 2014, published 2015)
“And” between values parts separate entries of the source, which are not always exact repeats. Identical values can stand only once. “Also recorded” adds a separate entry of the source.

Assays:
[1] = Pupillometry and cold pressor test in healthy volunteers; format: in vivo, human; conditions: 3-60 mg single oral dose
Procedure: Pulse oximetry and capnography data were collected continuously using a GE Carescape B650 monitoring system from 2 hours prior to dosing and until six hours after dosing, and thereafter at 12, 24, 48 and 72 hours post-dosing. Additional oximetry data were collected at 120, 168 and 216 hours. Pupillary miosis was assessed by pupillometry. Dark-adapted pupil diameter was measured in triplicate using a Neuroptics PLR-200 pupillometer under standardized light intensity (<5 lux) pre-dose, and at 2, 4, 6, 12, 24, 48, 72, 96, 120, 168 and 216 hours post-dosing.
Summary statistics (means, standard deviations, and coefficients of variation) were determined for each dose group for safety laboratory test data, ECG and pharmacokinetic parameters, and pharmacodynamic variables. Categorical variables were analysed using counts and percentages. Dose-proportionality of AUC and Cmax was assessed using linear regression. The effect of dose on pharmacodynamic parameter values over time was assessed using two-factor analysis of variance (ANOVA). […]
Analgesic effect was assessed based on duration of hand immersion in ice water and on visual analog scale (VAS) pain scores upon hand removal from the water bath. […]

[2] = QT interval (ΔQTcl) in opioid-dependent patients; format: in vivo, human; conditions: 60, 120, 180 mg, first 24 hours; correlated with serum concentration
Procedure: Patients' QT intervals were evaluated at regular time points throughout the study.

[3] = Pharmacokinetics in opioid-dependent patients (Phase IB); conditions: 60, 120, 180 mg cohorts
[4] = tested on: OPRD: human opioid receptor delta; conditions: previously shown; cited from earlier work
OPRK [5] = biological target: T1, OPRK (Homo sapiens, UniProt P41145); test: cell-based; design: host or cells: CHO-K1
OPRK [6] = biological target: T1, OPRK; test: biochemical; design: purchased PerkinElmer Life Sciences (Boston, Mass.)
[7] = Safety and tolerability of noribogaine in healthy humans; format: in vivo, human
Procedure: Safety and tolerability of noribogaine were tested in the group of volunteers from Example 1. Cold pressor testing was conducted in 1° C. water according to the method of Mitchell et al. (J. Pain 5:233-237, 2004) pre-dose, 6, 24, 48, 72 and 216 hours post-dosing. Safety evaluations included clinical monitoring, recording of adverse events (AEs), safety laboratory tests, vital signs, ECG telemetry from −2 h to 6 h after dosing, and 12-lead electrocardiograms (ECGs) up to 216 hours post-dosing.

T1 sequence (P41145 whole entry): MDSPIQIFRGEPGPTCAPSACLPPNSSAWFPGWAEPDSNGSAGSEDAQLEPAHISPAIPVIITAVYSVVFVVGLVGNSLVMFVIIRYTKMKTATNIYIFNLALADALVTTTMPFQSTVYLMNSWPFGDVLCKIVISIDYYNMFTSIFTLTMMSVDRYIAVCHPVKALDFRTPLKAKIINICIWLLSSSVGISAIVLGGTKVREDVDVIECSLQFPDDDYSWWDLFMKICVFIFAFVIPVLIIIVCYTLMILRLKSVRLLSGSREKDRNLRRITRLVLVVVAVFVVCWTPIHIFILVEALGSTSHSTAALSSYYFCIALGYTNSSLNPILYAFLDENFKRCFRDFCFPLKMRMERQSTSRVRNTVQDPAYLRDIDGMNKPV

CC[C@H]1CC2C[C@H]3c4[nH]c5ccc(O)cc5c4CCN(C2)C13 [Noribogaine]
analgesic effect in the cold pressor test ([1]; hand immersion duration and VAS pain scores): no analgesic effect | pupillary constriction (pupillometry, dark-adapted pupil diameter) ([1]; vs placebo): no evidence of pupillary constriction | QT interval prolongation (ΔQTcl) [2]: dose-dependent increase in QT interval prolongation | Maximum serum concentration (Cmax) versus dose [3]: increased in a dose-dependent manner | fold less affine at OPRD than at OPRK [4]: ~30 × | EC50 (OPRK [5]): ~0.265 µM | IC50 (OPRK [5]): 1.45 ± 1.1 µM | Kb (OPRK [5]): 0.251 µM | Beta-Arrestin2 Pathway e-coupling (OPRK [5]; OPRK, Activation): −0.43 | Beta-Arrestin2 Pathway e-signal (OPRK [5]; OPRK, Activation): 0.13 | inhibition of agonist response (up to) (OPRK [5]; OPRK, Dynorphin A at EC80): ~60% | IC50 (OPRK [5]; OPRK, Dynorphin A at EC80 (370 nM Dyn-A)): 1.45 µM | Beta-Arrestin2 Pathway e-coupling (OPRK [5]; OPRK, Inhibition): −0.44 | Beta-Arrestin2 Pathway e-signal (OPRK [5]; OPRK, Inhibition): 0.60 | Efficacy (Emax) (OPRK [5]; OPRK, activation, % of dynorphin A maximal stimulation): 12% and 12.6% | e-coupling (OPRK [5]; OPRK, activation, pKi-pEC50): −0.43 | Ke (OPRK [5]; OPRK, inhibition of Dynorphin A at EC80): 262 nM | e-coupling (OPRK [5]; OPRK, inhibitory component, pKi-pKe): −0.44 | Efficacy (Emax) (OPRK [6]): 72% | Efficacy (inhibition) (OPRK [6]): 25% | G-protein Pathway e-coupling (OPRK [6]): 1.72 and 1.08 | IC50 (OPRK [6]): 100 to 300 µM | e-coupling (OPRK [6]): 1.08 and 1.22 and 1.72 | own reduced signal level to which rival agonists are leveled down (OPRK [6]): 70% | EC50 (OPRK [6]; EC50): 8.75 µM and 8.7 µM | EC50 (OPRK [6]; EC50 (potency)): 8.75 µM and 9 µM | Kb (OPRK [6]; Ke): 15 µM and 24 µM | Kb (OPRK [6]; pEC50, pKe): 12.6 µM and 39.8 µM | Emax (OPRK [6]; read-out: maximal efficacy relative to Dynorphin A): 75% | adverse events reported ([7]; 3 mg dose group, healthy volunteers): five adverse events were reported by two subjects | adverse events reported ([7]; 10 mg dose group, healthy volunteers): one adverse event was reported by single subjects | adverse events reported ([7]; 30 mg dose group, healthy volunteers): one adverse event was reported by single subjects | oximetry, capnography, respiratory rate ([7]; 3-60 mg, healthy volunteers): no changes in oximetry or capnography, or changes in respiratory rate | vital signs and safety laboratory tests ([7]; 3-60 mg, healthy volunteers): no changes in vital signs or safety laboratory tests of note | Adverse events: Mild ([7]; Dose 3 mg, healthy volunteers): Dizziness; also recorded: Epistaxis; also recorded: Headache; also recorded: Back pain | Adverse events: Moderate ([7]; Dose 3 mg, healthy volunteers): Headache | Adverse events: Mild ([7]; Dose 10 mg, healthy volunteers): Headache | Adverse events: Mild ([7]; Dose 30 mg, healthy volunteers): Headache | QTcF values ([7]; any time, all dose groups 3-60 mg, healthy volunteers): ≤ 500 ms | single increase in QTcF ([7]; one subject dosed with 10 mg, 24 hours post-dosing): > 60 ms
